Assay results reported in ChEMBL document CHEMBL2021896, “A novel pyrimidine derivatives with aryl urea, thiourea and sulfonamide moieties: synthesis, anti-inflammatory and antimicrobial evaluation” (2012).
In brackets after ≈: the same amount, converted by molar mass. Activity calls are given as the source filed them. The rule behind the calls is not given here.

How the values were obtained:
THP-1 [1] = test: Antiinflammatory activity in human PMA-stimulated THP1 cells assessed as inhibition of LPS-induced TNFalpha production at 10 uM treated 30 mins before LPS challenge measured after 24 hrs by ELISA; format: functional
THP-1 [2] = test: Antiinflammatory activity in human PMA-stimulated THP1 cells assessed as inhibition of LPS-induced IL-6 production at 10 uM treated 30 mins before LPS challenge measured after 24 hrs by ELISA; format: functional
Staphylococcus aureus [3] = test: Antibacterial activity against Staphylococcus aureus by agar well diffusion method; format: functional
Bacillus subtilis [4] = test: Antibacterial activity against Bacillus subtilis up to 200 ug/ml by agar well diffusion method; format: functional, organism-based
Escherichia coli [5] = test: Antibacterial activity against Escherichia coli up to 200 ug/ml by agar well diffusion method; format: functional, organism-based
Salmonella typhimurium [6] = test: Antibacterial activity against Salmonella typhimurium up to 200 ug/ml by agar well diffusion method; format: functional, organism-based; conditions: Salmonella enterica subsp. enterica serovar Typhimurium
Candida albicans = test: Antifungal activity against Candida albicans by agar well diffusion method; format: functional
Aspergillus niger [7] = test: Antifungal activity against Aspergillus niger by agar well diffusion method; format: functional
Aspergillus flavus [8] = test: Antifungal activity against Aspergillus flavus by agar well diffusion method; format: functional
Escherichia coli [9] = test: Antibacterial activity against Escherichia coli by agar well diffusion method; format: functional
Salmonella typhimurium [10] = test: Antibacterial activity against Salmonella typhimurium by agar well diffusion method; format: functional, Salmonella enterica subsp. enterica serovar Typhimurium; conditions: Salmonella enterica
Fusarium solani [11] = test: Antifungal activity against Fusarium solani by agar well diffusion method; format: functional
Bacillus subtilis [12] = test: Antibacterial activity against Bacillus subtilis by agar well diffusion method; format: functional
Staphylococcus aureus [13] = test: Antibacterial activity against Staphylococcus aureus up to 200 ug/ml by agar well diffusion method; format: functional, organism-based
Aspergillus niger [14] = test: Antifungal activity against Aspergillus niger up to 200 ug/ml by agar well diffusion method; format: functional, organism-based
Aspergillus flavus [15] = test: Antifungal activity against Aspergillus flavus up to 200 ug/ml by agar well diffusion method; format: functional, organism-based
Fusarium solani [16] = test: Antifungal activity against Fusarium solani up to 200 ug/ml by agar well diffusion method; format: functional, organism-based

Compound | inhibition at 10 µM (THP-1 [1]) | inhibition at 10 µM (THP-1 [2]) | MIC (Staphylococcus aureus [3]) | Activity (Bacillus subtilis [4]) | Activity (Escherichia coli [5]) | Activity (Salmonella typhimurium [6]) | MIC (Candida albicans) | MIC (Aspergillus niger [7]) | MIC (Aspergillus flavus [8]) | MIC (Escherichia coli [9]) | MIC (Salmonella typhimurium [10]) | MIC (Fusarium solani [11]) | MIC (Bacillus subtilis [12]) | Activity (Staphylococcus aureus [13]) | Activity (Aspergillus niger [14]) | Activity (Aspergillus flavus [15]) | Activity (Fusarium solani [16])
O=S(=O)(Nc1ccc(-c2cc(Nc3cccc(C(F)(F)F)c3)ncn2)cc1)c1ccc(Br)cc1 | 6% | 11% | 80 µg/mL (≈ 146 µM) | inactive | inactive | inactive | 80 µg/mL (≈ 146 µM) | 95 µg/mL (≈ 173 µM) | 95 µg/mL (≈ 173 µM) |  |  |  |  |  |  |  | 
N#Cc1cccc(NC(=S)Nc2ccc(-c3cc(Nc4cccc(C(F)(F)F)c4)ncn3)cc2)c1 | 11% | 16% | 90 µg/mL (≈ 183 µM) | inactive |  |  | 20 µg/mL (≈ 40.8 µM) | 40 µg/mL (≈ 81.5 µM) | 20 µg/mL (≈ 40.8 µM) | 90 µg/mL (≈ 183 µM) | 90 µg/mL (≈ 183 µM) | 20 µg/mL (≈ 40.8 µM) |  |  |  |  | 
Cc1ccc(NC(=O)Nc2ccc(-c3cc(Nc4cccc(C(F)(F)F)c4)ncn3)cc2)cc1C | 16% | 27% | 90 µg/mL (≈ 188 µM) |  | inactive | inactive | 40 µg/mL (≈ 83.8 µM) | 75 µg/mL (≈ 157 µM) | 30 µg/mL (≈ 62.8 µM) |  |  | 60 µg/mL (≈ 126 µM) | 90 µg/mL (≈ 188 µM) |  |  |  | 
COc1ccc(NC(=S)Nc2ccc(-c3cc(Nc4cccc(C(F)(F)F)c4)ncn3)cc2)cc1 | 3% | 8% |  | inactive | inactive | inactive | 80 µg/mL (≈ 161 µM) |  | 90 µg/mL (≈ 182 µM) |  |  | 90 µg/mL (≈ 182 µM) |  | inactive | inactive |  | 
Fc1ccccc1NC(=S)Nc1ccc(-c2cc(Nc3cccc(C(F)(F)F)c3)ncn2)cc1 | 50% | 62% | 90 µg/mL (≈ 186 µM) |  |  | inactive | 90 µg/mL (≈ 186 µM) |  | 90 µg/mL (≈ 186 µM) | 90 µg/mL (≈ 186 µM) |  | 90 µg/mL (≈ 186 µM) | 90 µg/mL (≈ 186 µM) |  | inactive |  | 
CSc1ccc(NC(=O)Nc2ccc(-c3cc(Nc4cccc(C(F)(F)F)c4)ncn3)cc2)cc1 | 0% | 0% | 75 µg/mL (≈ 151 µM) |  |  |  | 90 µg/mL (≈ 182 µM) |  | 90 µg/mL (≈ 182 µM) | 90 µg/mL (≈ 182 µM) | 90 µg/mL (≈ 182 µM) | 90 µg/mL (≈ 182 µM) | 90 µg/mL (≈ 182 µM) |  | inactive |  | 
O=C(O)c1cn(C2CC2)c2cc(N3CCNCC3)c(F)cc2c1=O [CIPROFLOXACIN] |  |  | 20 µg/mL (≈ 60.4 µM) |  |  |  |  |  |  | 15 µg/mL (≈ 45.3 µM) | 20 µg/mL (≈ 60.4 µM) |  | 15 µg/mL (≈ 45.3 µM) |  |  |  | 
COc1cccc(NC(=O)Nc2ccc(-c3cc(Nc4cccc(C(F)(F)F)c4)ncn3)cc2)c1 | 11% | 18% | 35 µg/mL (≈ 73 µM) |  |  |  | 55 µg/mL (≈ 115 µM) | 35 µg/mL (≈ 73 µM) | 20 µg/mL (≈ 41.7 µM) | 30 µg/mL (≈ 62.6 µM) | 30 µg/mL (≈ 62.6 µM) | 20 µg/mL (≈ 41.7 µM) | 30 µg/mL (≈ 62.6 µM) |  |  |  | 
O=S(=O)(Nc1ccc(-c2cc(Nc3cccc(C(F)(F)F)c3)ncn2)cc1)c1ccccc1OC(F)(F)F | 0% | 0% | 10 µg/mL (≈ 18 µM) |  |  |  | 30 µg/mL (≈ 54.1 µM) | 60 µg/mL (≈ 108 µM) | 20 µg/mL (≈ 36.1 µM) | 20 µg/mL (≈ 36.1 µM) | 10 µg/mL (≈ 18 µM) | 20 µg/mL (≈ 36.1 µM) | 10 µg/mL (≈ 18 µM) |  |  |  | 
FC(F)(F)c1cccc(Nc2cc(-c3ccc(NC(=S)Nc4cc(C(F)(F)F)cc(C(F)(F)F)c4)cc3)ncn2)c1 | 0% | 0% | 20 µg/mL (≈ 33.3 µM) |  |  |  | 90 µg/mL (≈ 150 µM) |  |  | 25 µg/mL (≈ 41.6 µM) | 25 µg/mL (≈ 41.6 µM) | 75 µg/mL (≈ 125 µM) | 25 µg/mL (≈ 41.6 µM) |  | inactive | inactive | 
FC(F)(F)c1cccc(Nc2cc(-c3ccc(NC(=S)Nc4ccccc4C(F)(F)F)cc3)ncn2)c1 | 68% | 82% |  | inactive | inactive | inactive | 15 µg/mL (≈ 28.1 µM) | 25 µg/mL (≈ 46.9 µM) | 15 µg/mL (≈ 28.1 µM) |  |  | 15 µg/mL (≈ 28.1 µM) |  | inactive |  |  | 
Cc1ccc(F)cc1S(=O)(=O)Nc1ccc(-c2cc(Nc3cccc(C(F)(F)F)c3)ncn2)cc1 | 48% | 56% | 15 µg/mL (≈ 29.9 µM) |  |  |  | 90 µg/mL (≈ 179 µM) |  | 90 µg/mL (≈ 179 µM) | 15 µg/mL (≈ 29.9 µM) | 15 µg/mL (≈ 29.9 µM) | 90 µg/mL (≈ 179 µM) | 10 µg/mL (≈ 19.9 µM) |  | inactive |  | 
O=C(Nc1ccc(-c2cc(Nc3cccc(C(F)(F)F)c3)ncn2)cc1)Nc1cccc(Cl)c1F | 78% | 96% | 90 µg/mL (≈ 179 µM) | inactive | inactive | inactive | 90 µg/mL (≈ 179 µM) |  |  |  |  |  |  |  | inactive | inactive | inactive
Clc1ccc(COC(Cn2ccnc2)c2ccc(Cl)cc2Cl)c(Cl)c1 (configuration not stated) [MICONAZOLE] |  |  |  |  |  |  | 20 µg/mL (≈ 48.1 µM) | 15 µg/mL (≈ 36 µM) | 20 µg/mL (≈ 48.1 µM) |  |  | 15 µg/mL (≈ 36 µM) |  |  |  |  | 
N#Cc1ccc(NC(=O)Nc2ccc(-c3cc(Nc4cccc(C(F)(F)F)c4)ncn3)cc2)cc1 | 61% | 80% |  | inactive | inactive | inactive | 80 µg/mL (≈ 169 µM) | 90 µg/mL (≈ 190 µM) | 80 µg/mL (≈ 169 µM) |  |  | 75 µg/mL (≈ 158 µM) |  | inactive |  |  | 
Nc1ccc(-c2cc(Nc3cccc(C(F)(F)F)c3)ncn2)cc1 | 0% | 6% |  | inactive | inactive | inactive | 80 µg/mL (≈ 242 µM) | 80 µg/mL (≈ 242 µM) | 80 µg/mL (≈ 242 µM) |  |  | 90 µg/mL (≈ 272 µM) |  | inactive |  |  | 
O=C(Nc1ccc(-c2cc(Nc3cccc(C(F)(F)F)c3)ncn2)cc1)Nc1cccc(C(F)(F)F)c1 | 28% | 40% | 25 µg/mL (≈ 48.3 µM) |  |  |  | 25 µg/mL (≈ 48.3 µM) | 35 µg/mL (≈ 67.6 µM) | 20 µg/mL (≈ 38.7 µM) | 35 µg/mL (≈ 67.6 µM) | 80 µg/mL (≈ 155 µM) | 20 µg/mL (≈ 38.7 µM) | 40 µg/mL (≈ 77.3 µM) |  |  |  | 
N#Cc1cccc(S(=O)(=O)Nc2ccc(-c3cc(Nc4cccc(C(F)(F)F)c4)ncn3)cc2)c1 | 0% | 12% | 40 µg/mL (≈ 80.7 µM) |  |  |  | 55 µg/mL (≈ 111 µM) | 20 µg/mL (≈ 40.4 µM) | 35 µg/mL (≈ 70.6 µM) | 25 µg/mL (≈ 50.5 µM) | 45 µg/mL (≈ 90.8 µM) | 20 µg/mL (≈ 40.4 µM) | 65 µg/mL (≈ 131 µM) |  |  |  | 
COc1ccc(OC)c(S(=O)(=O)Nc2ccc(-c3cc(Nc4cccc(C(F)(F)F)c4)ncn3)cc2)c1 | 8% | 26% | 45 µg/mL (≈ 84.8 µM) |  |  |  | 25 µg/mL (≈ 47.1 µM) | 15 µg/mL (≈ 28.3 µM) | 40 µg/mL (≈ 75.4 µM) | 25 µg/mL (≈ 47.1 µM) | 35 µg/mL (≈ 66 µM) | 15 µg/mL (≈ 28.3 µM) | 30 µg/mL (≈ 56.5 µM) |  |  |  | 
